“And” between values parts separate entries of the source, which are not always exact repeats. Equal values may be shown once. “Also recorded” adds a separate entry of the source.
Experiments:
[1] = tested on: dogs subjected to hemorrhagic shock; assay: irreversible hemorrhagic shock in dogs (modified Wiggers technique, 35 mm Hg for 3 hours); format: in vivo, dog; conditions: for survival after retransfusion: retransfused at three hours
Protocol: In the experiments regarding an irreversible hemorrhagic shock, results were obtained in the dog model using Wigger's modified technique. We compared a group of animals receiving IV administration of fructose-1,6-diphosphate (FDP) to a group receiving equimolar glucose.
The experiments were performed in b 25 pentobarbital anesthetized (30 mg/kg IV) mongrel dogs of both sexes. After induction of anesthesia the animals were […] and ventilated with a Harvard respiration pump with the use of ambient air. Secured in the left lateral decubitus position on the fluoroscopic table, a femoral artery was used to introduce a large bore polyethylene catheter which was connected to a 1.5 liter bottle elevated at 35 mm Hg above the atrial level. In the connecting system an external calibrated electromagnetic flow probe (Statham) was incorporated in order to follow the direction and amount of blood flow. The pressure in this system was monitored through a side opening with the aid of a Statham pressure gauge. The other femoral artery was percutaneously catheterized and a Judkins type pigtail catheter was advanced to the aortic root. In the course of the experiments this catheter was placed intermittently into the left ventricle when recordings were made. This set-up enable us to monitor both aortic and left ventricular pressures via a single catheter. The femoral vein on the side where the incision was made was catheterized as well as a superficial vein of the front limb transutaneously for administration of the FDP, glucose, heparin and supplemental anesthetic. Parameters such as aortic, ventricular and femoral pressures, and EKG were monitored on an Electronics for Medicine DR-8 recorder. Recording of these parameters was made every 15 min. Heparin ([…] initially and thereafter 3 mg/kg/2 hrs) and antibiotics were given to all animals that were allowed to recover. A control period of one hour was allowed prior to bleeding the animal. During this period two arterial blood samples were drawn for pH, pO2, pCO2, pCO2 combining power and lactic acid determinations. During the oliegemic phase four arterial samples were taken for determination of the same parameters described at 30 min, 1 hr, 2 hrs, and 2 hrs 45 min.
The blood from the animals was withdrawn via the femoral artery (50-55 ml/min) until the means arterial pressure dropped to 35 mm Hg and from then on the pressure was kept at this level for three hours. The protocol for evaluating the therapeutic effect of FDP was designed in the following manner. […] Both groups received an additional 500 mg IV bolus of FDP or glucose every 30 min for the duration of the oligemic phase. In five controls and six treated dogs the chest was opened at three hours and with the aid of a specially designed cutting tool that had been cooled in liquid nitrogen, frozen transmural sections from the left ventricle were taken for ATP, creatine phosphate (CP), FDP and lactic acid determinations. The remaining 14 animals (6 controls and 8 treated with FDP) were retransfused at three hours and allowed to recover.
The epicardium and endocardium from the frozen tissue were separated (while still frozen) and homogenized in 6% perchloric acid. The supernatant was used to determine ATP, CP and lactate. The ATP and creatine phosphate were assessed with the method described by Lamprecht (Lamprecht, W., and P. Stein. Methods of Enzymatic Analysis. Ed: H. V. Bergmeyer, New York, Academic Press, 1963, p. 610.) while lactate was measured by the method of Marback (Marback, E. P., and M. H. Weil. Rapid enzymatic measurement of blood lactate and pyruvate. Clin. Chem. 13: 314, 1967). Tissue content of FDP was assessed by the method of Bucher and Hohorst (Bucher, T., and H. J. Hohorst. Dihydroxyacetone phosphate, fructose 1-6 diphosphate and D-glyceraldehyde 3-phosphate. In. Methods of Enzymatic Analysis. Ed: Bermeyer, New York, Academic Press, 1963, pgs. 246-252.)

[2] = tested on: dogs given potassium cyanide; assay: potassium cyanide poisoning in dogs; format: in vivo, dog; conditions: 2 mg/kg IV potassium cyanide; 0.5 gm/kg over 30 minutes
whole blood = assay: blood preservation: ATP content of refrigerated blood; design: species or system dog
Protocol: Blood specimens taken from a number of dogs were mixed with FDP in the following proportions: F1-25mg of FDP per 10ml of blood and F2-50mg of FDP per 10ml of blood. The same proportion was prepared with glucose: G1-25mg of glucose per 10ml of blood and G2-50mg of glucose per 10ml of blood. The blood specimens were refrigerated for 24 hours and then the blood was tested for ATP content after 24 hours 14 days.

blood = blood preservation: ATP content of refrigerated blood, 25, 50 and 100 mg per 10 ml; design: species or system dog
Protocol: The tests were also conducted under the conditions when 25mg, 50mg, and 100mg of FDP were mixed with 10ml of blood and 25mg, 50mg, and 100mg, of glucose were mixed with 10ml of blood. […]

[3] = tested on: dogs subjected to toxic doses of Digoxin; assay: digoxin toxicity in dogs; format: in vivo, dog; conditions: for hemodynamic parameters (cardiac output, arterial pressure): dog, in vivo
Protocol: Dogs subjected to toxic doses of Digoxin were treated with FDP and glucose. […] Also the dogs treated with FDP survived, while the controls treated with Dextrose 5% died within 3 hours after administration of Digoxin. In this paired study 10 anesthesized dogs received 3 mg. IV Digoxin as bolus injection. Five of the digs received 20 minutes after the digoxin injection 1 gm. of FDP and then on 2 mg/kg as a constant infusion for the next 3 hours. The five controls received in the same manner Dextrose 5%. […] (Pi<0.001.).

erythrocytes = assay: incubation of erythrocytes: ATP and 2-3 DPG content; format: cell-based
Excerpt: To allow for a broader and more complete interpretation of the results, a small paragraph will be devoted to the ability of FDP to cross the cellular membranes.

[4] = 25mg per 10ml of blood, 24 hours
[5] = 25mg per 10ml of blood, 48 hours
[6] = 25mg per 10ml of blood, 7 days, Incubate 30' 37°
[7] = 50mg per 10ml of blood, 24 hours
[8] = 50mg per 10ml of blood, 48 hours
[9] = 50mg per 10ml of blood, 7 days, Incubate 30' 37°
[10] = 25 mg with 10ml of blood, 24 hours
[11] = 25 mg with 10ml of blood, 48 hours
[12] = 50 mg with 10ml of blood, 24 hours
[13] = 50 mg with 10ml of blood, 48 hours
[14] = 100 mg with 10ml of blood, 24 hours
[15] = 100 mg with 10ml of blood, 48 hours

With O=C(COP(=O)(O)O)[C@@H](O)[C@H](O)[C@H](O)COP(=O)(O)O [FDP, fructose-1,6-diphosphate] the “outcome of irreversible experimental hemorrhagic shock” value ([1]; 3 hour duration at 35mm Hg AP) was “could be successfully treated with FDP”, the mortality ([1]; FDP by IV administration) was “zero” and the “creatine phosphate (CP) depletion” value ([1]; FIG. 4, epicardium and endocardium, 35 mm. Hg. for 3 hours) was “prevents depletion of creatine phosphate (CP) in both epicardium and endocardium”. The “ATP content in the epicardium” value ([1]; FIG. 4, hypotension of 35 mm. Hg. for 3 hours, FDP vs controls) was “no significant difference in ATP content”, the myocardial contractility ([1]; Intravenous administration) was “improves the myocardial contractility” and the “arterial plasma lactic acid, course after 2 hours” value ([1]; after 2 hours of hemorrhage) was “the plasma lactate continued to rise”. The “heart rate return towards control” value ([1]; after retransfusion) was “returned faster towards control”, the ATP myocardial content ([1]; at three hours) was “normal ATP myocardial content and no transmural gradient” and the “CP in the epicardium (in words)” value ([1]; at three hours) was “no deficit in the epicardium”. For the same compound, the “creatine phosphate (CP) in the endocardium, less than normal” value ([1]; at three hours) was 18%, the “endocardial/epicardial tissue lactate ratio” value ([1]; at three hours) was 2.26 ±0.26 and the “ATP and CP content in the myocardium / endocardium” value ([1]; dog, in vivo) was “restores ATP and CP content in the myocardium”. The “ST elevation (in words)” value ([1]; dog, in vivo) was “only minimal elevation was observed in two animals”, the “activity of glycolysis in the endocardium” value ([1]; dog, in vivo) was “restores the depressed activity of glycolysis in the endocardium” and the heart rate ([1]; dog, in vivo) was < 200 beats/min. For the same compound, the “plasma lactate and myocardial tissue lactate” value ([1]; dog, in vivo) was “increased plasma lactate and myocardial tissue lactate”, the “ATP and CP content in the myocardium / endocardium” value ([1]; dog, in vivo, listed as Fructose diphosphate) was “increased significantly the ATP and CP in the endocardium” and the plasma lactate ([1]; measured at 2 hrs 45 min after the onset of hypotension) was 124±16 mg %. For the same compound, the “arterial pH” value ([1]; not exceptional in the group treated with FDP) was ≤ 6.8, the “animals with spontaneous reversal of blood flow (from the bottle to the animal)” value ([1]; oligemic phase) was “only two of them reversed their flow” and the “electrocardiographic (EKG) ischemic changes” value ([1]; oligemic phase) was “In both animals after FDP was given the ischemic changes disappeared; also recorded: prevents the EKG ischemic changes”. The “electrocardiographic (EKG) ischemic changes” value ([1]; oligemic phase, listed as Fructose diphosphate) was “prevented electrocardiographic ischemic changes”, the survival after retransfusion [1] was “All 8 dogs treated with FDP survived” and the “renal and bowel function, neurological deficit” value ([1]; surviving dogs) was “normal renal and bowel function and no neurological deficit was noted”. The “amount of blood uptake” value ([1]; two FDP animals with reversed flow) was 24 % of the shed blood and 17 % of the shed blood, the survival [2] was “survived” and the ATP (whole blood; [4]) was 2.32 m mole/ml. It also gave an ATP (whole blood; [5]) of 2.34 m mole/ml, an ATP (whole blood; [6]) of 0.70 m mole/ml and an ATP (whole blood; 25mg per 10ml of blood, 9 days) of 0.82 m mole/ml. It also gave an ATP (whole blood; [7]) of 3.34 m mole/ml, an ATP (whole blood; [8]) of 2.08 m mole/ml and an ATP (whole blood; [9]) of 2.16 m mole/ml. The ATP (whole blood; 50mg per 10ml of blood, 9 days) was 2.04 m mole/ml, the ATP (whole blood; 14 days, Incubate 40' 37°) was 1.3 m mole/ml and the ATP (whole blood; 14 days, No incubation) was 1.22 m mole/ml. The ATP (blood; [10]) was 1.67 m mole/ml, the ATP (blood; [11]) was 1.92 m mole/ml and the ATP (blood; [12]) was 2.2 m mole/ml. The ATP (blood; [13]) was 2.85 m mole/ml, the ATP (blood; [14]) was 2.82 m mole/ml and the ATP (blood; [15]) was 3.40 m mole/ml. For the same compound, the survival ([3]; 3 mg. IV Digoxin) was “survived”, the digitalis induced dysarhythmia ([3]; 3 mg. IV Digoxin, FDP 1 gm. then 2 mg/kg infusion for 3 hours) was “suppresses significantly the digitalis induced dysarhythmia” and the “occurrence of dysarhythmia versus controls, significance” value ([3]; P < 0.001) was “significantly less in the group treated with FDP”. For the same compound, the “hemodynamic parameters (cardiac output, arterial pressure)” value [3] was “no alternation in hemodynamic parameters”, the “ATP and 2-3 DPG in the erythrocytes” value (erythrocytes) was “substantial increase of ATP and 2-3 DPG in the erythrocytes” and the “ATP and 2-3 DPG content in erythrocytes” value (erythrocytes; 5% FDP) was “large increase in their ATP and 2-3 DPG content”.
O=C[C@H](O)[C@@H](O)[C@H](O)[C@H](O)CO [glucose, reference compound] was tested, and the “ischemic EKG changes in control (glucose) animals” value ([1]; 55 min to 1 hour 15 minutes after onset of shock) was “All control animals demonstrated ischemic EKG changes”, the “creatine phosphate (CP) in the endocardium, less than normal” value ([1]; at three hours) was 88% and the “creatine phosphate (CP) in the epicardium, less than normal” value ([1]; at three hours) was 64%. For the same compound, the “endocardial ATP content, fall” value ([1]; at three hours) was 50%, the “endocardial/epicardial tissue lactate ratio” value ([1]; at three hours) was 1.52±0.21 and the ST elevation ([1]; maximum at 2 hours, precordial leads) was 0.55±0.17 mV. The survival after retransfusion [1] was “All 6 control animals that were retransfused died within 24 hours”, the survival [2] was “died” and the ATP (whole blood; [4]) was 0.22 m mole/ml. The ATP (whole blood; [5]) was 0.32 m mole/ml, the ATP (whole blood; [6]) was 0.28 m mole/ml and the ATP (whole blood; 25mg per 10ml of blood, 9 days) was 0.26 m mole/ml. It also gave an ATP (whole blood; [7]) of 0.44 m mole/ml, an ATP (whole blood; [8]) of 0.34 m mole/ml and an ATP (whole blood; [9]) of 0.18 m mole/ml. It also gave an ATP (whole blood; 50mg per 10ml of blood, 9 days) of 0.40 m mole/ml, an ATP (whole blood; 14 days, Incubate 40' 37°) of 0.88 m mole/ml and an ATP (whole blood; 14 days, No incubation) of 0.40 m mole/ml. The ATP (blood; [10]) was 0.475 m mole/ml, the ATP (blood; [11]) was 0.475 m mole/ml and the ATP (blood; [12]) was 0.375 m mole/ml. It also gave an ATP (blood; [13]) of 0.450 m mole/ml, an ATP (blood; [14]) of 0.250 m mole/ml and an ATP (blood; [15]) of 0.426 m mole/ml. For the same compound, the time to death ([3]; after administration of Digoxin) was ≤ 3 h, the “hemodynamic parameters (cardiac output, arterial pressure)” value [3] was “decline in arterial pressure, vomiting, and perfused diarrhea” and the “ATP content in the erythrocytes” value (erythrocytes; equimolar, same conditions) was “failed to increase the ATP content”.
